According to patent US9434756B2, “Crystalline 4′-epidaunorubicin hydrochloride and use thereof” (Heraeus Precious Metals GmbH & Co. KG, priority 2009, dated 2016):

Experiments:
[1] = Solubility of 4′-epidaunorubicin hydrochloride (stated in words, no method given); assay type: physicochemical
[2] = Thermal stability / decomposition of 4′-epidaunorubicin hydrochloride crystals (thermogravimetric analysis); assay type: physicochemical; conditions: for temperature at which the product decomposed: crystals obtained in the example
Source text: FIG. 2 is a graph showing the thermogravimetric analysis (TGA) of 4′-epidaunorubicin hydrochloride. The data were obtained using the instrument NETZSCH TG 209 (sample mass: […], range: 24.0/10.0 (K/min)/250.0, crucible: Al2O3).

Q: Which results are given for `COc1cccc2c1C(=O)c1c(O)c3c(c(O)c1C2=O)C[C@@](O)(C(C)=O)C[C@@H]3O[C@H]1C[C@H](N)[C@@H](O)[C@H](C)O1.Cl` [4′-epidaunorubicin hydrochloride]?
A: solubility of amorphously precipitated material ([1]; amorphous precipitate, solvent not stated): only purely soluble; solubility in methanol ([1]; methanol, crystalline form versus amorphous form, hydrochloride): improved solubility in methanol; thermal stability ([2]; crystalline form): high thermal stability; temperature at which the product decomposed ([2]; listed as Example 1, hydrochloride): 191 °C; temperature at which the product decomposed ([2]; listed as Example 2, hydrochloride): 191 °C; temperature at which the product decomposed ([2]; listed as Example 3, hydrochloride): 190 °C; temperature at which the product decomposed ([2]; listed as Example 4, hydrochloride): 190 °C
